From patent US4536397A, “Antibiotics, neoviridogriseins, and their method of production” (Sanraku-Ocean Co., Ltd., priority 1983, dated 1985)
Values after ≈ are worked out from the molar mass of the structure shown. Starred links: 1 amine or outer side, 2 acyl side, 3 side chain; linkers in the order of their positions; H or OH if unused. Positions of bridges follow the written chain, without caps; N, C: chain ends. Non-standard residues stand in square brackets, D forms with d. Residues, ends and D or L forms follow the SMILES beside them. ξ: configuration not given here. *: point of attachment. NMeLeu(3ξ-Me) = CN[C@H](C(=O)O)C(C)C(C)C; X1 = CC(C)C(C)C(C(=O)[*:2])N(C)[*:1]; Picolinoyl(3-OH) = O=C(c1ncccc1O)*; NMePhg = CN[CH](C(=O)O)c1ccccc1; Thr(3ξ) = CC(O)[C@H](N)C(=O)O; Hyp = O=C(O)[CH]1C[CH](O)CN1; Abu = CC[CH](N)C(=O)O; Sar = CNCC(=O)O

Tests used:
Sarcina lutea = assay: MIC, tube dilution method (incl. synergism with griseoviridin); assay type: cell-based
Mycoplasma fermentans = assay: MIC, dilution method, Mycoplasma; assay type: cell-based; settings: Table 4; PPLO broth (Chanock's medium; Difco)
Experimental: (§1) The MIC were determined by the dilution method.
(§2) (2): PPLO broth (Chanock's medium; Difco)
(§3) was tested in vitro agains several Mycoplasma strains.

[1] = system: Mycoplasma pulmonis PG 22; assay: MIC, dilution method, Mycoplasma; assay type: cell-based; settings: Table 4; PPLO broth (Chanock's medium; Difco)
Experimental: as §1, §2, §3

[2] = system: Mycoplasma agalactiae PG 2; assay: MIC, dilution method, Mycoplasma; assay type: cell-based; settings: Table 4; PPLO broth (Chanock's medium; Difco)
Experimental: as §1, §2, §3

[3] = system: Mycoplasma gallisepticum KP13; assay: MIC, dilution method, Mycoplasma; assay type: cell-based; set-up: unit not given beside the values; settings: Table 4; PPLO enrichment broth (Eiken)
Experimental: as §1
Medium (1): PPLO enrichment broth (Eiken, Japan)
as §3

Proteus vulgaris = assay: MIC, tube dilution method; assay type: cell-based; settings: BHI broth
[4] = system: Bacillus subtilis ATCC 6633; assay: MIC, tube dilution method; assay type: cell-based; settings: BHI broth
Solubility in solvents = assay type: physicochemical; settings: for solubility in organic solvents: methanol, ethanol, propanols, n-butanol, dioxane, acetates, ketones, benzene, toluene, chlorinated solvents, DMF, DMSO
Staphylococcus aureus [5] = assay: MIC, tube dilution method; assay type: cell-based; settings: BHI broth
Streptococcus pyogenes = assay: MIC, tube dilution method; assay type: cell-based; settings: BHI broth containing 10% horse blood
Salmonella gallinanum = assay: MIC, tube dilution method; assay type: cell-based; settings: BHI broth
Staphylococcus aureus [6] = assay: MIC repeated with a far lower dilution rate; assay type: cell-based; settings: for MIC: far lower dilution rate, brain heart infusion broth
From the text: This MIC experiment was based on the two-fold dilutions. To differentiate neoviridogrisein II and viridogrisein in their antibiotic activity, the MIC determination was repeated with a far lower dilution rate.
Medium: brain heart infusion broth

Escherichia coli = assay: MIC, tube dilution method; assay type: cell-based; settings: BHI broth
[7] = system: Diplococcus pneumoniac type 1; assay: MIC, tube dilution method; assay type: cell-based, Diplococcus pneumoniae; settings: BHI broth containing 10% horse blood
Staphylococcus sp. = assay: MIC, tube dilution method; assay type: cell-based; settings: BHI broth
Candida albicans = assay: MIC, tube dilution method; assay type: cell-based; settings: malt extract-yeast extract medium
Pseudeomonas aeruginosa = assay: MIC, tube dilution method; assay type: cell-based; settings: BHI broth

C[C@@H]1C/C=C2\SC[C@@H](NC(=O)c3coc(n3)C[C@H](O)C[C@H](O)/C=C/C=C/CNC2=O)C(=O)O1 [GV, griseoviridin]
MIC (Sarcina lutea; Table 3, varied ratios of neoviridogriseins mixture to griseoviridin, tube dilution, brain heart infusion broth): 0.250 µg/mL | MIC (Mycoplasma fermentans): < 0.05 | MIC [1]: 6.25 | MIC [2]: 3.13 | MIC [3]: 0.10

CC(C)CC1NC(=O)C(NC(=O)c2ncccc2O)C(C)OC(=O)C(c2ccccc2)N(C)C(=O)C(C)NC(=O)C(C(C)C(C)C)N(C)C(=O)CN(C)C(=O)C2CCCN2C1=O (stereo not shown) [NV II, neoviridogrisein II] ({Picolinoyl(3-OH)}-TLP[Sar][X1]A[NMePhg]; ester 1-C; configuration not given here)
MIC (Proteus vulgaris): > 25 µg/mL | MIC [4]: 0.4 µg/mL (≈ 0.463 µM) | solubility in organic solvents (Solubility in solvents): soluble | solubility in petroleum ether and hexane (Solubility in solvents): practically insoluble | solubility in water and ethyl ether (Solubility in solvents): hardly soluble | MIC (Staphylococcus aureus [5]; strain 209P): 0.1 µg/mL (≈ 0.116 µM) | MIC (Staphylococcus aureus [5]; strain (BX-1633)(PC)r): 0.2 µg/mL (≈ 0.232 µM) | MIC (Staphylococcus aureus [5]; strain (EM)r): 0.4 µg/mL (≈ 0.463 µM) | MIC (Staphylococcus aureus [5]; strain (EM, CM, SM, PC, TC)r): 0.2 µg/mL (≈ 0.232 µM) | MIC (Staphylococcus aureus [5]; strain (EM, OM)r): 0.4 µg/mL (≈ 0.463 µM) | MIC (Staphylococcus aureus [5]; strain (PC, EM, NM)r): 0.4 µg/mL (≈ 0.463 µM) | MIC (Staphylococcus aureus [5]; strain (PC, TC, EM, LM)r 1): 6.25 µg/mL (≈ 7.24 µM) | MIC (Staphylococcus aureus [5]; strain (PC, TC, EM, LM)r 2): 6.25 µg/mL (≈ 7.24 µM) | MIC (Staphylococcus aureus [5]; strain (SM, STH)r): 0.2 µg/mL (≈ 0.232 µM) | MIC (Staphylococcus aureus [5]; strain (STH)r): 0.8 µg/mL (≈ 0.927 µM) | MIC (Staphylococcus aureus [5]; strain (TC, CP, PC)r): 0.2 µg/mL (≈ 0.232 µM) | MIC (Staphylococcus aureus [5]; strain (TC, EM, LM, CP)r): 6.25 µg/mL (≈ 7.24 µM) | MIC (Staphylococcus aureus [5]; strain Russell(PC)r): 0.2 µg/mL (≈ 0.232 µM) | MIC (Staphylococcus aureus [5]; strain Smith): 0.2 µg/mL (≈ 0.232 µM) | MIC (Streptococcus pyogenes): 0.2 µg/mL (≈ 0.232 µM) | MIC (Salmonella gallinanum): > 25 µg/mL | times more active than viridogrisein (Staphylococcus aureus [6]; from the MIC values of Table 2): 2-3 times | MIC (Staphylococcus aureus [6]; strain 209 P): 0.078 µg/mL (≈ 0.0904 µM) | MIC (Staphylococcus aureus [6]; strain (EM, CM, SM, PC, TC)r): 0.125 µg/mL (≈ 0.145 µM) | MIC (Staphylococcus aureus [6]; strain (TC, CP, PC)r): 0.094 µg/mL (≈ 0.109 µM) | MIC (Staphylococcus aureus [6]; strain Bx-1633(PC)r): 0.125 µg/mL (≈ 0.145 µM) | MIC (Staphylococcus aureus [6]; strain Russell(PC)r): 0.125 µg/mL (≈ 0.145 µM) | MIC (Staphylococcus aureus [6]; strain Smith): 0.125 µg/mL (≈ 0.145 µM) | MIC (Sarcina lutea; Table 1, BHI broth): 0.4 µg/mL | MIC (Mycoplasma fermentans): < 0.05 | MIC [1]: 0.78 | MIC [2]: 0.39 | MIC (Escherichia coli): > 25 µg/mL | MIC [7]: 0.4 µg/mL (≈ 0.463 µM) | MIC (Staphylococcus sp.; Staphylococcus sp. (PC)r): 0.4 µg/mL (≈ 0.463 µM) | MIC (Staphylococcus sp.; Staphylococcus sp.): 0.8 µg/mL (≈ 0.927 µM) | MIC (Candida albicans): > 25 µg/mL | MIC [3]: 0.025 | MIC (Pseudeomonas aeruginosa): > 25 µg/mL

CC[C@@H]1NC(=O)[C@H](C(C)C(C)C)N(C)C(=O)CN(C)C(=O)[C@H]2CCCN2C(=O)[C@@H](CC(C)C)NC(=O)[C@@H](NC(=O)c2ncccc2O)C(C)OC(=O)[C@H](c2ccccc2)N(C)C1=O (stereo partly drawn) [NV I, neoviridogrisein I] ({Picolinoyl(3-OH)}-[Thr(3ξ)][dL][dP][Sar][NMeLeu(3ξ-Me)][Abu][NMePhg]; ester 1-C)
MIC (Proteus vulgaris): > 25 µg/mL | MIC [4]: 0.4 µg/mL (≈ 0.456 µM) | solubility in organic solvents (Solubility in solvents): soluble | solubility in petroleum ether and hexane (Solubility in solvents): practically insoluble | solubility in water and ethyl ether (Solubility in solvents): hardly soluble | MIC (Staphylococcus aureus [5]; strain 209P): 0.2 µg/mL (≈ 0.228 µM) | MIC (Staphylococcus aureus [5]; strain (BX-1633)(PC)r): 0.4 µg/mL (≈ 0.456 µM) | MIC (Staphylococcus aureus [5]; strain (EM)r): 0.4 µg/mL (≈ 0.456 µM) | MIC (Staphylococcus aureus [5]; strain (EM, CM, SM, PC, TC)r): 0.4 µg/mL (≈ 0.456 µM) | MIC (Staphylococcus aureus [5]; strain (EM, OM)r): 0.8 µg/mL (≈ 0.912 µM) | MIC (Staphylococcus aureus [5]; strain (PC, EM, NM)r): 0.8 µg/mL (≈ 0.912 µM) | MIC (Staphylococcus aureus [5]; strain (PC, TC, EM, LM)r 1): 6.25 µg/mL (≈ 7.13 µM) | MIC (Staphylococcus aureus [5]; strain (PC, TC, EM, LM)r 2): 6.25 µg/mL (≈ 7.13 µM) | MIC (Staphylococcus aureus [5]; strain (SM, STH)r): 0.4 µg/mL (≈ 0.456 µM) | MIC (Staphylococcus aureus [5]; strain (STH)r): 0.8 µg/mL (≈ 0.912 µM) | MIC (Staphylococcus aureus [5]; strain (TC, CP, PC)r): 0.2 µg/mL (≈ 0.228 µM) | MIC (Staphylococcus aureus [5]; strain (TC, EM, LM, CP)r): 6.25 µg/mL (≈ 7.13 µM) | MIC (Staphylococcus aureus [5]; strain Russell(PC)r): 0.2 µg/mL (≈ 0.228 µM) | MIC (Staphylococcus aureus [5]; strain Smith): 0.2 µg/mL (≈ 0.228 µM) | MIC (Streptococcus pyogenes): 0.4 µg/mL (≈ 0.456 µM) | MIC (Salmonella gallinanum): > 25 µg/mL | MIC (Sarcina lutea; Table 1, BHI broth): 0.2 µg/mL | MIC (Escherichia coli): > 25 µg/mL | MIC [7]: 0.2 µg/mL (≈ 0.228 µM) | MIC (Staphylococcus sp.; Staphylococcus sp. (PC)r): 0.8 µg/mL (≈ 0.912 µM) | MIC (Staphylococcus sp.; Staphylococcus sp.): 0.8 µg/mL (≈ 0.912 µM) | MIC (Candida albicans): > 25 µg/mL | MIC (Pseudeomonas aeruginosa): > 25 µg/mL

CCC1NC(=O)C(C(C)C(C)C)N(C)C(=O)CN(C)C(=O)C2CC(O)CN2C(=O)C(CC(C)C)NC(=O)C(NC(=O)c2ncccc2O)C(C)OC(=O)C(c2ccccc2)N(C)C1=O (stereo not shown) [NV III, neoviridogrisein III] ({Picolinoyl(3-OH)}-TL[Hyp][Sar][X1][Abu][NMePhg]; ester 1-C; configuration not given here)
MIC (Proteus vulgaris): > 25 µg/mL | MIC [4]: 0.8 µg/mL (≈ 0.896 µM) | solubility in organic solvents (Solubility in solvents): soluble | solubility in petroleum ether and hexane (Solubility in solvents): practically insoluble | solubility in water and ethyl ether (Solubility in solvents): hardly soluble | MIC (Staphylococcus aureus [5]; strain 209P): 0.2 µg/mL (≈ 0.224 µM) | MIC (Staphylococcus aureus [5]; strain (BX-1633)(PC)r): 0.4 µg/mL (≈ 0.448 µM) | MIC (Staphylococcus aureus [5]; strain (EM)r): 0.4 µg/mL (≈ 0.448 µM) | MIC (Staphylococcus aureus [5]; strain (EM, CM, SM, PC, TC)r): 0.4 µg/mL (≈ 0.448 µM) | MIC (Staphylococcus aureus [5]; strain (EM, OM)r): 0.8 µg/mL (≈ 0.896 µM) | MIC (Staphylococcus aureus [5]; strain (PC, EM, NM)r): 0.4 µg/mL (≈ 0.448 µM) | MIC (Staphylococcus aureus [5]; strain (PC, TC, EM, LM)r 1): 6.25 µg/mL (≈ 7 µM) | MIC (Staphylococcus aureus [5]; strain (PC, TC, EM, LM)r 2): 6.25 µg/mL (≈ 7 µM) | MIC (Staphylococcus aureus [5]; strain (SM, STH)r): 0.2 µg/mL (≈ 0.224 µM) | MIC (Staphylococcus aureus [5]; strain (STH)r): 1.6 µg/mL (≈ 1.79 µM) | MIC (Staphylococcus aureus [5]; strain (TC, CP, PC)r): 0.4 µg/mL (≈ 0.448 µM) | MIC (Staphylococcus aureus [5]; strain (TC, EM, LM, CP)r): 6.25 µg/mL (≈ 7 µM) | MIC (Staphylococcus aureus [5]; strain Russell(PC)r): 0.4 µg/mL (≈ 0.448 µM) | MIC (Staphylococcus aureus [5]; strain Smith): 0.2 µg/mL (≈ 0.224 µM) | MIC (Streptococcus pyogenes): 0.4 µg/mL (≈ 0.448 µM) | MIC (Salmonella gallinanum): > 25 µg/mL | MIC (Sarcina lutea; Table 1, BHI broth): 0.4 µg/mL | MIC (Escherichia coli): > 25 µg/mL | MIC [7]: 0.2 µg/mL (≈ 0.224 µM) | MIC (Staphylococcus sp.; Staphylococcus sp. (PC)r): 0.8 µg/mL (≈ 0.896 µM) | MIC (Staphylococcus sp.; Staphylococcus sp.): 0.8 µg/mL (≈ 0.896 µM) | MIC (Candida albicans): > 25 µg/mL | MIC (Pseudeomonas aeruginosa): > 25 µg/mL
